Series [1] has as its target sigma receptors. Description: Sigma receptor binding assay, displacement of [³H]DTG. As to conditions: guinea pig brain membrane homogenates, radioligand [³H]DTG […], 90 minutes at room temperature; read-out: IC₅₀ binding values. As for the experimental part:
Briefly, frozen whole guinea-pig brains (Biotrol, Indianapolis, IN) were homogenized in 10 volumes (w/v) of ice-cold 320 mM sucrose using a Brinkman polytron. The homogenate was centrifuged at 1,000 x g for 20 minutes at 4°C. The supernatant was centrifuged at 20,000 x g for 20 minutes at 4°C. The resulting pellet was resuspended in 10 initial volumes of 50 mM Tris/HCl buffer at pH 7.4 and centrifuged at 20,000 x g for 20 minutes at 4°C. The resulting pellet was resuspended in 5 initial volumes ice-cold 50mM Tris/Hcl (pH .4), and the final volume was adjusted to yield a protein concentration of 3 mg/ml, as determined by dye-binding protein assay (Biorad) using BSA as the standard.
Incubations were terminated after 90 minutes at room temperature by addition of 4 ml of ice-cold 50mM Tris/HCl (pH 7.4) and rapid filtration of the membrane suspension through Whatman GF/B glass-fiber filters under vacuum, using a 48-well cell harvester (Brandel, Gaithersburg, MD). The filters were washed 2 times with 4 ml of 50 mM Tris/HCl (pH 7.4). Total filtration and washing time was less than 20 seconds. Each filter was dissolved in 10 ml Cytoscint (Westchem, San Diego, CA), and radioactivity was measured by liquid scintillation spectrometry at a counting efficiency of approximately 50%. IC₅₀ values were determined by interpolation from displacement-curve plots on semilogarithmic graph paper.

For series [2], the system named is male albino BKW mice. Description: Light/dark exploration of mice (black:white test box). The note with it: for numbers of rears and line crossings compared with controls (sedation): not sedative at the dosage level; for latency to entering the dark compartment / numbers of rears and line crossings at the highest dose (sedation): subcutaneously; for numbers of rears and line crossings at the highest dose (sedation): 0.1 mg/kg, drug not sedative at this level.

Series [3] concerns Male Hooded Lister rats. The experiment in a line: Rat social interaction test. The note with it: for social interactions: 40 min. before testing, 10 min session, n = 6. It is filed as in vivo.
Text: A second preferred animal model is the rat social interaction test described by Jones, B.J. et al., supra, wherein the time that two mice spend in social interaction is quantified. […] Both the familiarity and the light level of the test arena may be manipulated. Undrugged rats show the highest level of social interaction when the test arena is familiar and is lit by low light. Social interaction declines if the arena is unfamiliar to the rats or is lit by bright light. Anxiolytic agents prevent this decline. The overall level of motor activity may also be measured to allow detection of drug effects specific to social behaviors.
Male Hooded Lister rats (Glaxo bred, 200-250g), were housed 5 to a cage and were kept in the laboratory environment for at least a week before testing. Rats paired in the test were taken from separate cages.
The test arena consisted of an open-topped box, 62 x 62 x 33 cm with a 7 x 7 matrix of infra-red photocell beams in the walls, 2.5 cm from the floor.
Testing involved placing each member of a pair of rats in opposite corners of the arena and then leaving them undisturbed for 10 min. while recording their behavior remotely on videotape. The behavioral assessments were made subsequently from the recordings. The time spent in social interaction was measured and expressed as a cumulative total for the 10 min session. The behaviors that comprised social interaction were: following with contact, sniffing (but not sniffing of the hindquarters), crawling over and under, tumbling, boxing and grooming.
N-adamantyl-N'-o-tolylguanidine was tested over the range of 0.001-0.1 mg/kg.
For series [4], the system named is male albino BKW mice. As to conditions: mouse, in vivo.
Where [5] appears, read: subcutaneously 40 min before testing, 0.01 ug to 0.1 mg/kg.
[6] abbreviates: 0.01 ug to 0.1 mg/kg, result in words.

The values that follow come from EP0473671B1, “USE OF SIGMA-RECEPTORS LIGANDS FOR THE MANUFACTURE OF AN ANXIOLYTIC AGENT” (STATE OF OREGON BY AND THROUGH OREGON STATE BOARD OF HIGHER …, priority 1989, dated 1990).

Like-named read-outs stand apart in the source and are kept apart here. A value given as a limit tells only on which side of the number the result lay.

Take `N=C(Nc1ccccc1I)N[C@@H]1C[C@@H]2CC[C@H]1C2` (racemic) [N-((±)-endo-2-norbornyl)-N'-(2-iodophenyl)guanidine]: in series [1], the IC50 stood at 5 nM.

On to `Cc1ccccc1NC(=N)N[C@@H]1C[C@@H]2CC[C@H]1C2` (racemic) [N-((±)-endo-2-norbornyl)-N'-(2-methylphenyl)guanidine], for which the IC50 in series [1] stood at 6 nM.

In the case of `N=C(Nc1ccccc1I)N[C@H]1C[C@@H]2CC[C@H]1C2` (relative stereo) [N-(exo-2-norbornyl)-N'-(2-iodophenyl)guanidine], in series [1], the IC50 stood at 4 nM.

Take `Cc1ccccc1NC(=N)N[C@H]1C[C@@H]2CC[C@H]1C2` (relative stereo) [N-(exo-2-norbornyl)-N'-(2-methylphenyl)guanidine]: the IC50 in series [1] came out at 7 nM.

Turning to `CCCN1CCC[C@@H](c2cccc(O)c2)C1` [(-)-3-PPP, reference compound], the IC50 in series [1] is 280 ± 21 nM.

Turning to `C=CCN1CC[C@@]2(C)c3cc(O)ccc3C[C@@H]1[C@@H]2C` [(-)-SKF10047, reference compound], the IC50 in series [1] was 4000 ± 566 nM.

Take `N=C(NC1CCCCC1)NC12CC3CC(CC(C3)C1)C2` [AdChG, N-(cyclohexyl)-N'-(adamant-1-yl)guanidine]: the IC50 in series [1] turned out to be 12.5 nM.

For the compound `NC(=Nc1ccccc1I)NC12CC3CC(CC(C3)C1)C2` [AdIpG, N-(2-iodophenyl)-N'-(adamant-1-yl)guanidine], the IC50 in series [1] amounted to 6.2 nM. Also, in series [2] (orally administered, 1 mg/kg), the “anxiolytic activity when orally administered” value is “anxiolytic activity”; the “latency to entering the dark compartment in comparison to controls” value is recorded as “increase”; the “numbers of line crossings and rears in the light compartment” value (from here on “numbers of line crossings and rears”) was “increase”; the “numbers of rears and line crossings compared with controls (sedation)” value was “did not decrease significantly”. In series [2] (setting [5]), the “numbers of line crossings and rears” value is “increased at the expense of those in the dark compartment”; the “proportion of time the mice spent in the larger, lighted area of the test chamber” value (“proportion … of the test chamber” below) was “increased, in a dose dependant manner”. The “latency to entering the dark compartment” value in series [2] (setting [6]) is on record as “increased in a dose dependant manner”. For the same compound, the “numbers of rears and line crossings at the highest dose (sedation)” value (from here on “numbers … at the highest dose (sedation)”) in series [2] is on record as “did not decrease significantly”.

Consider `Cc1ccccc1NC(=N)NC12CC3CC(CC(C3)C1)C2` [AdTG, N-(o-tolyl)-N'-(adamant-1-yl)guanidine], for which, in series [3] (0.001-0.1 mg/kg i.p.), the social interactions entry is given as “significantly increased”. For the same compound, the “dose producing about the same result, relative to the dose of diazepam” value in series [3] (1 mg/kg for diazepam and 0.1 mg/kg for N-adamantyl-N'-o-tolylguanidine) is recorded as “one-tenth”. Also, in series [2] (orally administered, 1 mg/kg), the “anxiolytic activity when orally administered” value is “anxiolytic activity”; the “numbers of line crossings and rears” value is reported as “increased at the expense of those in the dark compartment”; the “proportion of time the mice spent in the larger, lighted area of the box” value is reported as “increased significantly”. Besides, in series [2] (setting [5]), the “numbers of line crossings and rears” value is recorded as “increased at the expense of those in the dark compartment”; the “proportion … of the test chamber” value was “dose dependently increased”. Moreover, in series [2] (setting [6]), the “latency to entering the dark compartment” value is “increased in a dose dependant manner”. In addition, the “numbers … at the highest dose (sedation)” value in series [2] is “did not decrease significantly”.

As for `N=C1Nc2ccccc2-c2ccccc2N1` [Bridge-DPG, 2-imino-1,3H-dibenzo[d,f]-[1,3]-diazepine], in series [1], the IC50 is greater than 100000 nM.

For the compound `N=C(NC12CC3CC(CC(C3)C1)C2)NC12CC3CC(CC(C3)C1)C2` [DAG, N,N'-di(adamant-1-yl)guanidine], in series [2] (orally administered, 1 mg/kg), the “anxiolytic activity when orally administered” value is on record as “anxiolytic activity”; the “latency to entering the dark compartment in comparison to controls” value is recorded as “increase”; the “numbers of line crossings and rears” value is listed as “increase”; the “numbers of rears and line crossings compared with controls (sedation)” value was “did not decrease significantly”. For the same compound, in series [2] (setting [5]), the “numbers of line crossings and rears” value is recorded as “increased at the expense of those in the dark compartment”; the “proportion … of the test chamber” value is “tended to increase”. In addition, the “numbers … at the highest dose (sedation)” value in series [2] is reported as “did not decrease significantly”. In addition, the “latency to entering the dark compartment” value in series [2] (peak effect at 0.01 ug/kg, controls 12 sec) was 20 s.

For the compound `Cc1ccccc1NC(=N)NC1CCCCC1` [DChG, N-(o-tolyl)-N'-(cyclohexyl)guanidine], in series [1], the IC50 is 86 ± 17 nM.

For `CNC(=N)NC` [DMG, N,N'-di(methyl)guanidine], the IC50 in series [1] is greater than 100000 nM.

Take `Cc1cccc(C)c1NC(=N)Nc1c(C)cccc1C` [DXG, N,N'-di-(2,6-dimethylphenyl)-guanidine]: in series [1], the IC50 turned out to be 90 ± 18 nM.

As to `Cc1ccccc1NC(=N)NC1C2CC3CC(C2)CC1C3` (centres unmarked) [N-(adamant-2-yl)-N'-(2-methylphenyl)guanidine], in series [1], the IC50 was 7 nM.

For `N=C(Nc1ccccc1I)NC1C2CC3CC(C2)CC1C3` (centres unmarked) [N-adamant-2-yl)-N'-(2-iodophenyl)guanidine], the IC50 in series [1] was 3.5 nM.

Consider `Cc1ccccc1NC(=N)NC1CCCCC1` [N-cyclohexyl-N'-(2-methylphenyl)-guanidine], for which the IC50 in series [1] was 13 nM.

Consider `Cc1ccccc1NC(=N)Nc1ccc(N)cc1C` [NH₂-DTG], for which the IC50 in series [1] turned out to be 280 ± 20 nM.

Regarding `CN(C)CCCN1c2ccccc2Sc2ccc(Cl)cc21` [chlorpromazine, reference compound], in series [1], the IC50 came out at 1480 ± 265 nM.

Take `CN1C(=O)CN=C(c2ccccc2)c2cc(Cl)ccc21` [diazepam, reference compound]: the social interactions result in series [3] (diazepam intraperitoneally 0.125-1 mg/kg) is on record as “significantly increased”. Further, the “numbers … at the highest dose (sedation)” value in series [4] is listed as “decreased significantly”. Besides, in series [2] (mouse, in vivo), the “numbers of line crossings and rears” value is “increased at the expense of those in the dark compartment”; the “proportion … of the test chamber” value was “dose-dependently increased”.

`CCN1CCCC1CNC(=O)c1cc(S(N)(=O)=O)ccc1OC` (centres unmarked) [sulpiride, reference compound]: the IC50 in series [1] was greater than 100 nM.

On to `O=C1CC2(CCCC2)CC(=O)N1CCCCN1CCN(c2nsc3ccccc23)CC1` [tiospirone, reference compound], for which the IC50 in series [1] worked out at 233 ± 52 nM.

Take N,N-di(o-tolyl)-guanidine [DTG]: the “number of rears, crossings, or the % time in the black compartment” value in series [2] (s.c., at the concentrations tested, Figure 7) is “did not affect significantly”.

Take “N-(adamant-1-yl)-N'-[(E)-2-phenylethenyl]phenylguanidine”: the IC50 in series [1] is 1000 nM. In series [2] (setting [5]), the “numbers of line crossings and rears” value is recorded as “tended to remain the same except at the highest dosage”; the “proportion … of the test chamber” value is “generally did not increase”. For the same compound, in series [2], the “numbers … at the highest dose (sedation)” value was “did not decrease significantly”.
